Measurements published in paper PMC5218480 (PLoS ONE, 2017).

Tested on: MV-4-11 cells
Experiment: Gene expression microarray analysis (Affymetrix PrimeView) and GSEA
Type: cell-based, human
Design: RFU PODN (11730768_x_at) / Fold change /veh PODN (11730768_x_at) / RFU LINC00158 (11744669_a_at) / Fold change /veh LINC00158 (11744669_a_at) / RFU DUSP10 (11751237_a_at) / Fold change /veh DUSP10 (11751237_a_at) / RFU ID3 (11757404_x_at) / Fold change /veh ID3 (11757404_x_at) / RFU PLEKHG5 (11737974_s_at) / Fold change /veh PLEKHG5 (11737974_s_at) / RFU LRRC4B (11730491_at) / Fold change /veh LRRC4B (11730491_at) / RFU GIMAP4 (11747438_a_at) / Fold change /veh GIMAP4 (11747438_a_at) / RFU KRT8 (11758183_x_at) / Fold change /veh KRT8 (11758183_x_at) / RFU CNN1 (11734310_a_at) / Fold change /veh CNN1 (11734310_a_at) / RFU VPS37D (11726825_at) / Fold change /veh VPS37D (11726825_at) / RFU C10orf10 (11716522_x_at) / Fold change /veh C10orf10 (11716522_x_at) / RFU KIR2DL2 /// KIR2DL4 /// KIR2DL5A /// KIR2DL5B /// KIR2DS1 /// KIR2DS2 /// KIR2DS3 /// KIR2DS4 /// KIR3DL3 /// KIR3DL3 /// KIR3DS1 (11738374_at) / Fold change /veh KIR2DL2 /// KIR2DL4 /// KIR2DL5A /// KIR2DL5B /// KIR2DS1 /// KIR2DS2 /// KIR2DS3 /// KIR2DS4 /// KIR3DL3 /// KIR3DL3 /// KIR3DS1 (11738374_at) / RFU C1QL1 (11718748_at) / Fold change /veh C1QL1 (11718748_at) / RFU TMPRSS4 (11747572_a_at) / Fold change /veh TMPRSS4 (11747572_a_at) / RFU HAMP (11756126_x_at) / Fold change /veh HAMP (11756126_x_at) / RFU RNFT2 (11725882_a_at) / Fold change /veh RNFT2 (11725882_a_at) / RFU NR4A2 (11747474_a_at) / Fold change /veh NR4A2 (11747474_a_at) / RFU ABCC12 (11746883_a_at) / Fold change /veh ABCC12 (11746883_a_at) / RFU TMEM136 (11760407_x_at) / Fold change /veh TMEM136 (11760407_x_at) / RFU CLDN22 /// WWC2 (11732394_at) / Fold change /veh CLDN22 /// WWC2 (11732394_at) / RFU HLA-DPB1 (11760878_x_at) / Fold change /veh HLA-DPB1 (11760878_x_at) / RFU SPINT1 (11716480_a_at) / Fold change /veh SPINT1 (11716480_a_at) / RFU GAP43 (11754022_s_at) / Fold change /veh GAP43 (11754022_s_at) / RFU A4GNT (11735810_at) / Fold change /veh A4GNT (11735810_at) / RFU PRB3 (11715151_x_at) / Fold change /veh PRB3 (11715151_x_at) / RFU TUBB4B (11761932_at) / Fold change /veh TUBB4B (11761932_at) / RFU CAPN14 (11732068_a_at) / Fold change /veh CAPN14 (11732068_a_at) / RFU TMCC2 (11721928_a_at) / Fold change /veh TMCC2 (11721928_a_at) / RFU IRGQ (11745062_a_at) / Fold change /veh IRGQ (11745062_a_at) / RFU FAM174B (11720279_a_at) / Fold change /veh FAM174B (11720279_a_at) / RFU TMPRSS4 (11748680_a_at) / Fold change /veh TMPRSS4 (11748680_a_at) / RFU FAM212B (11763350_a_at) / Fold change /veh FAM212B (11763350_a_at) / RFU PLEKHG5 (11743358_a_at) / Fold change /veh PLEKHG5 (11743358_a_at) / RFU ZSCAN30 (11745921_a_at) / Fold change /veh ZSCAN30 (11745921_a_at) / RFU CMKLR1 (11741424_a_at) / Fold change /veh CMKLR1 (11741424_a_at) / RFU LOC101060620 /// MAPK8IP1 (11723275_at) / Fold change /veh LOC101060620 /// MAPK8IP1 (11723275_at) / RFU SPTSSB (11747773_x_at) / Fold change /veh SPTSSB (11747773_x_at) / RFU PRSS12 (11739890_at) / Fold change /veh PRSS12 (11739890_at) / RFU BIN1 (11741810_x_at) / Fold change /veh BIN1 (11741810_x_at) / RFU WNT11 (11732464_a_at) / Fold change /veh WNT11 (11732464_a_at) / RFU C10orf10 (11716521_a_at) / Fold change /veh C10orf10 (11716521_a_at) / RFU C5orf56 (11738089_at) / Fold change /veh C5orf56 (11738089_at) / RFU CYB561 (11721691_x_at) / Fold change /veh CYB561 (11721691_x_at) / RFU ANKRD19P (11752326_a_at) / Fold change /veh ANKRD19P (11752326_a_at) / RFU OR2T12 /// OR2T33 /// OR2T8 (11738714_s_at) / Fold change /veh OR2T12 /// OR2T33 /// OR2T8 (11738714_s_at) / RFU VCAN (11748164_a_at) / Fold change /veh VCAN (11748164_a_at) / RFU JSRP1 (11732532_at) / Fold change /veh JSRP1 (11732532_at) / RFU KRTAP10-11 (11738290_x_at) / Fold change /veh KRTAP10-11 (11738290_x_at) / RFU MYO3A (11730013_a_at) / Fold change /veh MYO3A (11730013_a_at) / RFU EBF3 (11725865_a_at) / Fold change /veh EBF3 (11725865_a_at) / RFU CAMK2N1 (11719241_x_at) / Fold change /veh CAMK2N1 (11719241_x_at) / RFU C5orf56 (11738088_a_at) / Fold change /veh C5orf56 (11738088_a_at) / RFU OLFML3 (11715873_a_at) / Fold change /veh OLFML3 (11715873_a_at) / RFU LOC100653217 /// NTM (11731650_a_at) / Fold change /veh LOC100653217 /// NTM (11731650_a_at) / RFU MAPK11 (11762145_a_at) / Fold change /veh MAPK11 (11762145_a_at) / RFU FIZ1 (11724087_x_at) / Fold change /veh FIZ1 (11724087_x_at) / RFU OASL (11726364_x_at) / Fold change /veh OASL (11726364_x_at) / RFU SOX15 (11748057_x_at) / Fold change /veh SOX15 (11748057_x_at) / RFU CD79A (11719716_a_at) / Fold change /veh CD79A (11719716_a_at) / RFU HIST1H1D (11736915_at) / Fold change /veh HIST1H1D (11736915_at) / RFU CASKIN2 (11723855_a_at) / Fold change /veh CASKIN2 (11723855_a_at) / RFU LOC730098 (11760151_x_at) / Fold change /veh LOC730098 (11760151_x_at) / RFU OR4N2 (11742367_at) / Fold change /veh OR4N2 (11742367_at) / RFU PRRT2 (11749266_a_at) / Fold change /veh PRRT2 (11749266_a_at) / RFU SNX32 (11753110_a_at) / Fold change /veh SNX32 (11753110_a_at) / RFU CDHR5 (11726645_a_at) / Fold change /veh CDHR5 (11726645_a_at) / RFU RCAN1 (11760418_a_at) / Fold change /veh RCAN1 (11760418_a_at) / RFU FAM167A (11723789_a_at) / Fold change /veh FAM167A (11723789_a_at) / RFU FAM26E (11764081_at) / Fold change /veh FAM26E (11764081_at) / RFU ISYNA1 (11749810_s_at) / Fold change /veh ISYNA1 (11749810_s_at) / RFU ACY1 (11761880_at) / Fold change /veh ACY1 (11761880_at) / RFU 11764098_at / Fold change /veh 11764098_at / RFU SAMD14 (11745864_x_at) / Fold change /veh SAMD14 (11745864_x_at) / RFU NPB (11741838_a_at) / Fold change /veh NPB (11741838_a_at) / RFU TMPRSS6 (11731388_a_at) / Fold change /veh TMPRSS6 (11731388_a_at) / RFU KRTAP10-2 (11738614_at) / Fold change /veh KRTAP10-2 (11738614_at) / RFU ARHGAP8 /// PRR5-ARHGAP8 (11727945_x_at) / Fold change /veh ARHGAP8 /// PRR5-ARHGAP8 (11727945_x_at) / RFU KRTAP5-7 /// NADSYN1 (11734609_at) / Fold change /veh KRTAP5-7 /// NADSYN1 (11734609_at) / RFU RASL12 (11751679_a_at) / Fold change /veh RASL12 (11751679_a_at) / RFU CDKN2B (11736163_a_at) / Fold change /veh CDKN2B (11736163_a_at) / RFU PRF1 (11729649_at) / Fold change /veh PRF1 (11729649_at) / RFU, ZNF638 /// ZNF638-IT1 / Fold change vs veh, ZNF638 /// ZNF638-IT1 / RFU, PANK3 / Fold change vs veh, PANK3 / RFU, SH3YL1 / Fold change vs veh, SH3YL1 / RFU, ZEB2 / Fold change vs veh, ZEB2 / RFU, NRIP1 / Fold change vs veh, NRIP1 / RFU, PTTG1IP / Fold change vs veh, PTTG1IP / RFU, CAPN2 / Fold change vs veh, CAPN2 / RFU, MED14 / Fold change vs veh, MED14 / RFU, SNORA58 / Fold change vs veh, SNORA58 / RFU, C1orf63 / Fold change vs veh, C1orf63 / RFU, LRRFIP1 / Fold change vs veh, LRRFIP1 / RFU, NDUFAF7 / Fold change vs veh, NDUFAF7 / RFU, SLC12A2 / Fold change vs veh, SLC12A2 / RFU, IBTK / Fold change vs veh, IBTK / RFU, ESF1 / Fold change vs veh, ESF1 / Fold change vs veh, TMEM50B / RFU, TAOK1 / Fold change vs veh, TAOK1 / RFU, ACBD3 / Fold change vs veh, ACBD3 / RFU, TMA16 / Fold change vs veh, TMA16 / RFU, RWDD3 / Fold change vs veh, RWDD3 / RFU, BCAT1 / Fold change vs veh, BCAT1 / RFU, EDEM3 / Fold change vs veh, EDEM3 / RFU, TMEM33 / Fold change vs veh, TMEM33 / RFU, WDR75 / Fold change vs veh, WDR75 / RFU, AHCTF1 / Fold change vs veh, AHCTF1 / RFU, TFRC / Fold change vs veh, TFRC / RFU, ZDHHC17 / Fold change vs veh, ZDHHC17 / RFU, NOM1 / Fold change vs veh, NOM1 / RFU, ARL8B / Fold change vs veh, ARL8B / RFU, ZBTB11 / Fold change vs veh, ZBTB11 / RFU, TAMM41 / Fold change vs veh, TAMM41 / RFU, KIAA1704 /// LOC100996395 / Fold change vs veh, KIAA1704 /// LOC100996395 / RFU, ING1 / Fold change vs veh, ING1 / RFU, TRMT61B / Fold change vs veh, TRMT61B / RFU, FUBP3 / Fold change vs veh, FUBP3 / RFU, TP53 / Fold change vs veh, TP53 / RFU, TNKS2 / Fold change vs veh, TNKS2 / RFU, ZFP14 / Fold change vs veh, ZFP14 / RFU, ACTR2 / Fold change vs veh, ACTR2 / RFU, PPP3R1 / Fold change vs veh, PPP3R1 / RFU, PIK3R1 / Fold change vs veh, PIK3R1 / RFU, HNRNPA1 / Fold change vs veh, HNRNPA1 / RFU, RNF170 / Fold change vs veh, RNF170 / RFU, ZNF28 / Fold change vs veh, ZNF28 / RFU, RNGTT / Fold change vs veh, RNGTT / RFU, OGT / Fold change vs veh, OGT / RFU, BRD1 / Fold change vs veh, BRD1 / RFU, MARS / Fold change vs veh, MARS / RFU, ZNF655 / Fold change vs veh, ZNF655 / RFU, FAHD1 / Fold change vs veh, FAHD1 / RFU, BDP1 / Fold change vs veh, BDP1 / RFU, LRRCC1 / Fold change vs veh, LRRCC1 / RFU, ARID1A / Fold change vs veh, ARID1A / RFU, ZNF146 / Fold change vs veh, ZNF146 / RFU, ZNF330 / Fold change vs veh, ZNF330 / RFU, GPN3 / Fold change vs veh, GPN3 / RFU, C9orf123 / Fold change vs veh, C9orf123 / RFU, N4BP2L2 / Fold change vs veh, N4BP2L2 / RFU, ARFIP1 / Fold change vs veh, ARFIP1 / RFU, FAM179B / Fold change vs veh, FAM179B / RFU, BCL10 / Fold change vs veh, BCL10 / RFU, UHRF1BP1L / Fold change vs veh, UHRF1BP1L / RFU, BET1 / Fold change vs veh, BET1 / RFU, CNOT2 / Fold change vs veh, CNOT2 / RFU, ZNF268 / Fold change vs veh, ZNF268 / Fold change vs veh, ZNF507 / RFU, DGCR2 / Fold change vs veh, DGCR2 / RFU, WDSUB1 / Fold change vs veh, WDSUB1 / Fold change vs veh, HSP90B1 /// MIR3652 / RFU, ADSS / Fold change vs veh, ADSS / RFU, GK / Fold change vs veh, GK / RFU, ZNF148 / Fold change vs veh, ZNF148 / RFU, TAF9 / Fold change vs veh, TAF9 / RFU, SLC1A5 / Fold change vs veh, SLC1A5 / RFU, SLMO2 / Fold change vs veh, SLMO2 / RFU, ABCC4 / Fold change vs veh, ABCC4 / RFU, LOC101060439 /// RAP1B / Fold change vs veh, LOC101060439 /// RAP1B / RFU, RFX7 / Fold change vs veh, RFX7 / RFU, GTPBP10 / Fold change vs veh, GTPBP10 / RFU, CNEP1R1 / Fold change vs veh, CNEP1R1 / RFU, BIVM-ERCC5 /// ERCC5 / Fold change vs veh, BIVM-ERCC5 /// ERCC5 / RFU, ILF3 / Fold change vs veh, ILF3 / RFU 11762660_at / Fold change /veh 11762660_at / RFU VCAN (11757783_s_at) / Fold change /veh VCAN (11757783_s_at) / RFU DDX43 (11728927_at) / Fold change /veh DDX43 (11728927_at) / RFU KRT8 (11758188_x_at) / Fold change /veh KRT8 (11758188_x_at) / RFU NKD1 (11759106_at) / Fold change /veh NKD1 (11759106_at) / RFU SRD5A1 (11742802_a_at) / Fold change /veh SRD5A1 (11742802_a_at) / RFU TPSAB1 /// TPSB2 (11721975_s_at) / Fold change /veh TPSAB1 /// TPSB2 (11721975_s_at) / RFU GSTM3 (11746129_a_at) / Fold change /veh GSTM3 (11746129_a_at) / RFU IL23R (11737362_x_at) / Fold change /veh IL23R (11737362_x_at) / RFU TMEM51 (11727254_a_at) / Fold change /veh TMEM51 (11727254_a_at) / RFU PIWIL2 (11732686_x_at) / Fold change /veh PIWIL2 (11732686_x_at) / RFU ORM1 (11744905_x_at) / Fold change /veh ORM1 (11744905_x_at) / RFU CCDC152 (11743942_at) / Fold change /veh CCDC152 (11743942_at) / RFU ECM1 (11717891_a_at) / Fold change /veh ECM1 (11717891_a_at) / RFU IL23R (11748794_a_at) / Fold change /veh IL23R (11748794_a_at) / RFU TNFAIP8L3 (11732012_x_at) / Fold change /veh TNFAIP8L3 (11732012_x_at) / RFU MBOAT4 (11741988_at) / Fold change /veh MBOAT4 (11741988_at) / RFU 11764193_at / Fold change /veh 11764193_at / RFU TMEM53 (11763286_at) / Fold change /veh TMEM53 (11763286_at) / RFU MAGEB2 (11727129_at) / Fold change /veh MAGEB2 (11727129_at) / RFU TMEM200A (11744735_a_at) / Fold change /veh TMEM200A (11744735_a_at) / RFU CCDC152 (11751479_a_at) / Fold change /veh CCDC152 (11751479_a_at) / RFU FAM211A (11726209_a_at) / Fold change /veh FAM211A (11726209_a_at) / RFU RGS16 (11746705_a_at) / Fold change /veh RGS16 (11746705_a_at) / RFU VCAN (11755009_s_at) / Fold change /veh VCAN (11755009_s_at) / RFU RHOB (11743442_s_at) / Fold change /veh RHOB (11743442_s_at) / RFU RGS16 (11720943_a_at) / Fold change /veh RGS16 (11720943_a_at) / RFU RGS16 (11720944_at) / Fold change /veh RGS16 (11720944_at) / RFU, VPS4B / Fold change vs veh, VPS4B / RFU, CREB1 / Fold change vs veh, CREB1 / RFU, DNAJC13 / Fold change vs veh, DNAJC13 / RFU, GNAQ / Fold change vs veh, GNAQ / RFU, CDK5R1 / Fold change vs veh, CDK5R1 / RFU, ZRANB3 / Fold change vs veh, ZRANB3 / RFU, CUL4A / Fold change vs veh, CUL4A / RFU, CCNY / Fold change vs veh, CCNY / RFU, UFL1 / Fold change vs veh, UFL1 / RFU, COG3 / Fold change vs veh, COG3 / RFU, DIAPH2 / Fold change vs veh, DIAPH2 / RFU, SKA2 / Fold change vs veh, SKA2 / RFU, AFF3 / Fold change vs veh, AFF3 / RFU, LMF1 / Fold change vs veh, LMF1 / RFU, IPO11 / Fold change vs veh, IPO11 / RFU, DFFB / Fold change vs veh, DFFB / RFU, FOXP1 / Fold change vs veh, FOXP1 / RFU, CARD8 / Fold change vs veh, CARD8 / RFU, STRN3 / Fold change vs veh, STRN3 / RFU, ADK / Fold change vs veh, ADK / RFU, RASSF2 / Fold change vs veh, RASSF2 / RFU, WIPF1 / Fold change vs veh, WIPF1 / RFU, LARP1B / Fold change vs veh, LARP1B / RFU, RASA1 / Fold change vs veh, RASA1 / RFU, RB1 / Fold change vs veh, RB1 / RFU, PPFIA1 / Fold change vs veh, PPFIA1 / RFU, MAT2A / Fold change vs veh, MAT2A / RFU, CCT5 / Fold change vs veh, CCT5 / RFU, WDR92 / Fold change vs veh, WDR92 / RFU, CUX1 / Fold change vs veh, CUX1 / RFU, TTC7A / Fold change vs veh, TTC7A / RFU, TMEM135 / Fold change vs veh, TMEM135 / RFU, DEPTOR / Fold change vs veh, DEPTOR / RFU, CPM / Fold change vs veh, CPM / RFU, DNAJB6 / Fold change vs veh, DNAJB6 / RFU, CACNA2D3 / Fold change vs veh, CACNA2D3 / RFU, DTX4 / Fold change vs veh, DTX4 / RFU, TFCP2 / Fold change vs veh, TFCP2 / RFU, GMCL1 /// GMCL1P1 / Fold change vs veh, GMCL1 /// GMCL1P1 / RFU, AEBP2 / Fold change vs veh, AEBP2 / RFU, SNHG1 /// SNORD22 /// SNORD25 /// SNORD26 /// SNORD27 /// SNORD28 /// SNORD29 /// SNORD31 / Fold change vs veh, SNHG1 /// SNORD22 /// SNORD25 /// SNORD26 /// SNORD27 /// SNORD28 /// SNORD29 /// SNORD31 / Fold change (Aza/veh), C12orf56 (ProbeSet 11735607_a_at) / Fold change (ACY-1035/veh), C12orf56 (ProbeSet 11735607_a_at) / Fold change (Aza/veh), FGFR1OP (ProbeSet 11751329_s_at) / Fold change (ACY-1035/veh), FGFR1OP (ProbeSet 11751329_s_at) / Fold change (Aza/veh), VPS36 (ProbeSet 11739960_a_at) / Fold change (ACY-1035/veh), VPS36 (ProbeSet 11739960_a_at) / RFU SYPL1 (11715823_x_at) / Fold change /veh SYPL1 (11715823_x_at) / RFU IGFBP7 (11715501_s_at) / Fold change /veh IGFBP7 (11715501_s_at) / RFU REEP3 (11722064_at) / Fold change /veh REEP3 (11722064_at) / RFU IGLL1 (11728026_x_at) / Fold change /veh IGLL1 (11728026_x_at): dose or concentration left out as unconfirmed
Conditions: ProbeSet 11755159_a_at; LIST D

Nc1ccc(-c2cccs2)cc1NC(=O)c1ccc2c(c1)cc(C1CC1)n2CCN1CCOCC1 [ACY-1035]
RFU, COG3: 86.80 RFU
